Data: patent US11999727B2 (Tango Therapeutics, Inc., priority 2020, dated 2024)
Like-named read-outs stand apart in the source and are kept apart here.

What was measured:
[1] = test system: HAP1 MTAP-intact cell line; experiment: SDMA in-cell western assay, HAP1 MTAP-intact; type: cell-based; details: Homo sapiens
Method in brief: (§1)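 Isogenic HAP1 pair: the MTAP-intact line expresses endogenous MTAP, and the deleted line is MTAP-null. Symmetric dimethylarginine was detected by in-cell western and IC50 values derived for each line.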

PRMT5 [2] = target: T1, PRMT5 (Homo sapiens, UniProt O14744); experiment: PRMT5 biochemical IC50 assay with no cofactor
T1 construct: purchased Viva (custom protein)
T1 sequence (O14744 whole entry): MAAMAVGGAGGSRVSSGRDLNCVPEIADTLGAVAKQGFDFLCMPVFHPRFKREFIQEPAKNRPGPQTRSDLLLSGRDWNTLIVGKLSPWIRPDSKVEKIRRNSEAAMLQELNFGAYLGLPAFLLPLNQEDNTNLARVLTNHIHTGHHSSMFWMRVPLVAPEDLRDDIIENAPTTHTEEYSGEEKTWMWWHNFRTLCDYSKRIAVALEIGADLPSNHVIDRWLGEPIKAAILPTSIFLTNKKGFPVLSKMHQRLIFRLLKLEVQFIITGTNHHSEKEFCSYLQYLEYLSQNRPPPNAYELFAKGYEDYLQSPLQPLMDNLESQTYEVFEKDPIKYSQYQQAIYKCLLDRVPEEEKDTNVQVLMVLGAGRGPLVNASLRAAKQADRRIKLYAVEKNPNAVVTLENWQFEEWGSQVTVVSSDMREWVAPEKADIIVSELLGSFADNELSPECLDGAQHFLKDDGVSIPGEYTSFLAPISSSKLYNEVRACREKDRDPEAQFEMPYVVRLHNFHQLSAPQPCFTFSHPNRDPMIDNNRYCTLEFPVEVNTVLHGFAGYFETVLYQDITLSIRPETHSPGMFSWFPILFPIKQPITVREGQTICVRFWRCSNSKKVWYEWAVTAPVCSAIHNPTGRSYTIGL
T1 sequence (Q9BQA1 whole entry partner): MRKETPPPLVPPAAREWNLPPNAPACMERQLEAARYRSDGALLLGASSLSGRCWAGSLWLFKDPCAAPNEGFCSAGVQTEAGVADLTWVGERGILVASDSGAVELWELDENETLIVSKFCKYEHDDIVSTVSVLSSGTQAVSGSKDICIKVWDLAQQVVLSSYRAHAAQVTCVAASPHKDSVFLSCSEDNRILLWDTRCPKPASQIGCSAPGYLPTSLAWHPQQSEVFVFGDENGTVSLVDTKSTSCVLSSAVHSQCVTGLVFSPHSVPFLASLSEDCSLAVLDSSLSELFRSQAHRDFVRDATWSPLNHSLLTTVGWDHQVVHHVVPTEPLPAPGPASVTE
Excerpt: Table 1 indicates IC50 values (μM) against PRMT5 for exemplary compounds in the presence of SAM as cofactor, with no cofactor, and with MTA as cofactor, respectively (columns 4-6). […] Ki values can be calculated from the IC50 values as described in the Examples section. As detailed in the Examples section, for the assay performed in the presence of SAM, IC50=Ki×1.5 (Ki=IC50/1.5).

[3] = test system: HAP1 MTAP-deleted cell line; experiment: SDMA in-cell western assay, HAP1 MTAP-deleted; type: cell-based; details: for IC50: Homo sapiens; for MTAP intact/deleted ratio: IC50 ratio HAP1 MTAP-intact vs HAP1 MTAP-deleted, SDMA in-cell western
Method in brief: as §1

PRMT5 [4] = target: T1, PRMT5; experiment: PRMT5 biochemical IC50 assay with SAM as cofactor
[5] = test system: HAP1 MTAP-deleted cell line; experiment: Viability assay, MTAP-deleted cell line; type: cell-based; details: Homo sapiens
Excerpt: Table 1 additionally indicates IC50 values in a viability assay for the MTAP-deleted cell line (column 10), indicating the effect of treatment with compound on cell survival.

PRMT5 [6] = target: T1, PRMT5; experiment: PRMT5 biochemical IC50 assay with MTA as cofactor
[7] = HAP1, SDMA in-cell western, HAP1 MTAP-intact, read-out: MTAP HAP1 intact IC50
[8] = PRMT5, no cofactor, read-out: No Cofactor/rel IC50
[9] = HAP1, SDMA in-cell western, HAP1 MTAP-deleted, read-out: HAP1 MTAP deleted IC50
[10] = PRMT5, SAM as cofactor, read-out: SAM IC50
[11] = HAP1, viability assay, MTAP-deleted cell line, read-out: HAP1 MTAP deleted viability
[12] = PRMT5, MTA as cofactor, read-out: MTA IC50

Structure (SMILES) | IC50 [1, 7] | IC50 (PRMT5 [2]; [8]) | IC50 [3, 9] | IC50 (PRMT5 [4]; [10]) | IC50 (PRMT5 [6]; [12]) | MTAP intact/deleted ratio [3] | IC50 [5, 11] | IC50 ([1]; HAP1, read-out: MTAP HAP1 intact IC50) | IC50 (PRMT5 [2]; No Cofactor/rel IC50, PRMT5, no cofactor) | IC50 ([3]; HAP1, read-out: HAP1 MTAP deleted IC50) | IC50 (PRMT5 [4]; SAM IC50, PRMT5, SAM as cofactor) | IC50 ([5]; HAP1, read-out: HAP1 MTAP deleted viability) | IC50 (PRMT5 [6]; MTA IC50, PRMT5, MTA as cofactor)
CCc1cc(NC(=O)C(=O)N2C[C@@H](C)CC[C@@H]2c2cccc([C@@H]3CCCN(C)C3)c2)cnc1N [Compound 1090, N-(6-amino-5-ethyl-3-pyridyl)-2-oxo-2-[(2R,5S)-5-methyl-2-[3-[(3S)-1-methyl-3-piperidyl]phenyl]-1-piperidyl]acetamide] | 100 to 1000 nM | < 50 nM | < 100 nM | < 50 nM | < 50 nM | A (an IC50 ratio greater than or equal to 10 fold) | < 1000 nM | – | – | – | – | – | –
CCc1cc(NC(=O)C(=O)N2C[C@@H](C)CC[C@@H]2c2ccc3sc(CN4CCOCC4)nc3c2)cnc1N [Compound 1092, N-(6-amino-5-ethylpyridin-3-yl)-2-((2R,5S)-5-methyl-2-(2-(morpholinomethyl)benzo[d]thiazol-5-yl)piperidin-1-yl)-2-oxoacetamide] | 100 to 1000 nM | < 50 nM | < 100 nM | 50 to 500 nM | < 50 nM | A (an IC50 ratio greater than or equal to 10 fold) | < 1000 nM | – | – | – | – | – | –
CCc1cc(NC(=O)C(=O)N2C[C@@H](C)CC[C@@H]2c2ccc3sc(C4CCN(C)CC4)nc3c2)cnc1C [Compound 1100, N-(5-ethyl-6-methylpyridin-3-yl)-2-((2R,5S)-5-methyl-2-(2-(1-methylpiperidin-4-yl)benzo[d]thiazol-5-yl)piperidin-1-yl)-2-oxoacetamide] | 100 to 1000 nM | < 50 nM | < 100 nM | < 50 nM | < 50 nM | A (an IC50 ratio greater than or equal to 10 fold) | < 1000 nM | – | – | – | – | – | –
Cc1ncc(NC(=O)C(=O)N2C[C@@H](C)CC[C@@H]2c2ccc3sc(C4CCN(C)CC4)nc3c2)cc1Cl [Compound 1102, N-(5-chloro-6-methylpyridin-3-yl)-2-((2R,5S)-5-methyl-2-(2-(1-methylpiperidin-4-yl)benzo[d]thiazol-5-yl)piperidin-1-yl)-2-oxoacetamide] | 100 to 1000 nM | < 50 nM | < 100 nM | < 50 nM | < 50 nM | A (an IC50 ratio greater than or equal to 10 fold) | < 1000 nM | – | – | – | – | – | –
CCc1cc(NC(=O)C(=O)N2C[C@@H](C)CC[C@@H]2c2ccc(NC3CCN(C)CC3)cc2)cnc1N [Compound 1112, N-(6-Amino-5-ethyl-3-pyridyl)-2-[(2R,5S)-5-methyl-2-[4-[(1-methyl-4-piperidyl)amino]phenyl]-1-piperidyl]-2-oxo-acetamide] | 100 to 1000 nM | < 50 nM | < 100 nM | 50 to 500 nM | < 50 nM | A (an IC50 ratio greater than or equal to 10 fold) | < 1000 nM | – | – | – | – | – | –
C[C@H]1CC[C@H](c2ccc3sc(C4CCN(C)CC4)nc3c2)N(C(=O)C(=O)Nc2cnc(N)c(C(F)(F)F)c2)C1 [Compound 1117, N-(6-amino-5-(trifluoromethyl)pyridin-3-yl)-2-((2R,5S)-5-methyl-2-(2-(1-methylpiperidin-4-yl)benzo[d]thiazol-5-yl)piperidin-1-yl)-2-oxoacetamide] | 100 to 1000 nM | < 50 nM | < 100 nM | < 50 nM | < 50 nM | A (an IC50 ratio greater than or equal to 10 fold) | < 1000 nM | – | – | – | – | – | –
CCc1cc(NC(=O)C(=O)N2C[C@@H](C)CC[C@@H]2c2ccc3sc(C4(OC)CCN(C)CC4)nc3c2)cnc1N [Compound 1118, N-(6-amino-5-ethylpyridin-3-yl)-2-((2R,5S)-2-(2-(4-methoxy-1-methylpiperidin-4-yl)benzo[d]thiazol-5-yl)-5-methylpiperidin-1-yl)-2-oxoacetamide] | – | – | – | – | – | A (an IC50 ratio greater than or equal to 10 fold) | – | < 100 nM | < 50 nM | < 100 nM | < 50 nM | < 1000 nM | < 50 nM
Cc1cc(NC(=O)C(=O)N2C[C@@H](C)CC[C@@H]2c2ccc3sc(C4CN(C)C4)nc3c2)cnc1C [Compound 1123, N-(5,6-dimethylpyridin-3-yl)-2-((2R,5S)-5-methyl-2-(2-(1-methylazetidin-3-yl)benzo[d]thiazol-5-yl)piperidin-1-yl)-2-oxoacetamide] | 100 to 1000 nM | < 50 nM | < 100 nM | < 50 nM | < 50 nM | A (an IC50 ratio greater than or equal to 10 fold) | < 1000 nM | – | – | – | – | – | –

The next lines start with results.

IC50 [1, 7] | IC50 (PRMT5 [2]; [8]) | IC50 [3, 9] | IC50 (PRMT5 [4]; [10]) | IC50 (PRMT5 [6]; [12]) | Structure (SMILES) | MTAP intact/deleted ratio [3] | IC50 [5, 11] | IC50 ([1]; HAP1, read-out: MTAP HAP1 intact IC50) | IC50 (PRMT5 [2]; No Cofactor/rel IC50, PRMT5, no cofactor) | IC50 ([3]; HAP1, read-out: HAP1 MTAP deleted IC50) | IC50 (PRMT5 [4]; SAM IC50, PRMT5, SAM as cofactor) | IC50 ([5]; HAP1, read-out: HAP1 MTAP deleted viability) | IC50 (PRMT5 [6]; MTA IC50, PRMT5, MTA as cofactor)
< 100 nM | < 50 nM | < 100 nM | < 50 nM | < 50 nM | CC(=O)N1CCC(c2nc3cc([C@H]4CC[C@H](C)CN4C(=O)C(=O)Nc4cnc(N)c(C)c4)ccc3s2)CC1 [Compound 1093, 2-((2R,5S)-2-(2-(1-acetylpiperidin-4-yl)benzo[d]thiazol-5-yl)-5-methylpiperidin-1-yl)-N-(6-amino-5-methylpyridin-3-yl)-2-oxoacetamide] | A (an IC50 ratio greater than or equal to 10 fold) | < 1000 nM | – | – | – | – | – | –
< 100 nM | < 50 nM | < 100 nM | < 50 nM | < 50 nM | CCc1cc(NC(=O)C(=O)N2C[C@@H](C)CC[C@@H]2c2ccc3sc(CCN4CCCC4)nc3c2)cnc1N [Compound 1095, N-(6-amino-5-ethylpyridin-3-yl)-2-((2R,5S)-5-methyl-2-(2-(2-(pyrrolidin-1-yl)ethyl)benzo[d]thiazol-5-yl)piperidin-1-yl)-2-oxoacetamide] | A (an IC50 ratio greater than or equal to 10 fold) | < 1000 nM | – | – | – | – | – | –
< 100 nM | < 50 nM | < 100 nM | < 50 nM | < 50 nM | CCc1cc(NC(=O)C(=O)N2C[C@@H](C)CC[C@@H]2c2ccc3sc([C@H]4C[C@H](N(C)C)C4)nc3c2)cnc1N [Compound 1101, N-(6-amino-5-ethylpyridin-3-yl)-2-((2R,5S)-2-(2-(3-(dimethylamino)cyclobutyl)benzo[d]thiazol-5-yl)-5-methylpiperidin-1-yl)-2-oxoacetamide] | A (an IC50 ratio greater than or equal to 10 fold) | < 1000 nM | – | – | – | – | – | –
< 100 nM | < 50 nM | < 100 nM | < 50 nM | < 50 nM | Cc1cc(NC(=O)C(=O)N2C[C@@H](C)CC[C@@H]2c2ccc3sc(C4CCN(CCF)CC4)nc3c2)cnc1N [Compound 1114, N-(6-amino-5-methylpyridin-3-yl)-2-((2R,5S)-2-(2-(1-(2-fluoroethyl)piperidin-4-yl)benzo[d]thiazol-5-yl)-5-methylpiperidin-1-yl)-2-oxoacetamide] | A (an IC50 ratio greater than or equal to 10 fold) | < 1000 nM | – | – | – | – | – | –
< 100 nM | < 50 nM | < 100 nM | 50 to 500 nM | < 50 nM | CCc1cc(NC(=O)C(=O)N2C[C@@H](C)CC[C@@H]2c2ccc3sc(C4CCN(CCC(F)(F)F)CC4)nc3c2)cnc1N [Compound 1124, N-(6-amino-5-ethylpyridin-3-yl)-2-((2R,5S)-5-methyl-2-(2-(1-(3,3,3-trifluoropropyl)piperidin-4-yl)benzo[d]thiazol-5-yl)piperidin-1-yl)-2-oxoacetamide] | B (an IC50 ratio greater than or equal to 3 fold but lower than 10 fold) | < 1000 nM | – | – | – | – | – | –
< 100 nM | < 50 nM | < 100 nM | < 50 nM | < 50 nM | CCc1cc(NC(=O)C(=O)N2C[C@@H](C)CC[C@@H]2c2ccc3sc([C@H]4CCN(C)C(C)(C)C4)nc3c2)cnc1N [Compound 1125, N-(6-amino-5-ethylpyridin-3-yl)-2-((2R,5S)-5-methyl-2-(2-(1,2,2-trimethylpiperidin-4-yl)benzo[d]thiazol-5-yl)piperidin-1-yl)-2-oxoacetamide] | A (an IC50 ratio greater than or equal to 10 fold) | < 1000 nM | – | – | – | – | – | –
< 100 nM | < 50 nM | < 100 nM | 50 to 500 nM | < 50 nM | CCc1cc(NC(=O)C(=O)N2C[C@@H](C)CC[C@@H]2c2ccc3sc([C@@H]4CN(C)CCO4)nc3c2)cnc1N [Compound 1134, N-(6-amino-5-ethyl-3-pyridyl)-2-oxo-2-[(2R,5S)-5-methyl-2-[2-[(2S)-4-methylmorpholin-2-yl]-1,3-benzothiazol-5-yl]-1-piperidyl]acetamide] | A (an IC50 ratio greater than or equal to 10 fold) | < 1000 nM | – | – | – | – | – | –
